Measurements reported in patent US20240382730A1, “FLEXIBLE MICRONEEDLE ARRAY PATCH FOR CHRONIC WOUND OXYGENATION AND BIOFILM ERADICATION” (Purdue Research Foundation, priority 2021, published 2024).

Tested on: S. aureus mature biofilm
Assay: Colony biofilm model, mature biofilm
Assay type: cell-based, Staphylococcus aureus
Conditions: FIG. 9a; powder amount estimated equal to that in the CPO-loaded MN sample, 24 h
Procedure: Biofilm Antibacterial Studies. Antibiofilm activity of MNs loaded with CPO was evaluated by the colony biofilm model. Overnight cultures of S. aureus and P. aeruginosa were diluted to 2×10^5 CFU mL−1 with TSB. Next, 50 μL of the diluted bacterial suspension was inoculated onto sterile 10 mm nitrocellulose disks placed on the surface of tryptic soy agar (TSA) plates. To allow biofilm development on the nitrocellulose membrane, the plates were incubated at 37° C. for 72 h. The developed biofilm was then nourished by aseptically transferring to new TSA plates every day for 4 days.31,38 After maturation of the biofilms, 12 mm disks of MNs loaded with CPO and control samples including PET films, CPO powder, and 12 mm disks of MNs without CPO were placed onto the biofilm using sterile forceps. The quantity of CPO powder in the control was estimated to be the amount of CPO powder present in the sample of MNs loaded with CPO. For all experiments, biofilms without any treatments were used as the negative control. The plates were further incubated at 37° C. for 24 h immediately after each treatment. […] The plates were further incubated at 37° C. for 24 h and viable CFU mL−1 were calculated.

For `[Ca+2].[O-][O-]` [CPO, calcium peroxide], which “effect on number of colonies in biofilm” value is on record?
Its value is “did not affect the number of colonies”.
